Reference: ChEMBL document CHEMBL3991601, “The target landscape of clinical kinase drugs” (Science, 2017)
Active and inactive are the calls of the source. On the calls: in the data inactive means no Kd found up to 30 µM.

Columns and labels:
[1] = target: T1, Serine/threonine-protein kinase Nek1 (Homo sapiens, UniProt Q96PY6)
T1 sequence (Q96PY6 whole entry): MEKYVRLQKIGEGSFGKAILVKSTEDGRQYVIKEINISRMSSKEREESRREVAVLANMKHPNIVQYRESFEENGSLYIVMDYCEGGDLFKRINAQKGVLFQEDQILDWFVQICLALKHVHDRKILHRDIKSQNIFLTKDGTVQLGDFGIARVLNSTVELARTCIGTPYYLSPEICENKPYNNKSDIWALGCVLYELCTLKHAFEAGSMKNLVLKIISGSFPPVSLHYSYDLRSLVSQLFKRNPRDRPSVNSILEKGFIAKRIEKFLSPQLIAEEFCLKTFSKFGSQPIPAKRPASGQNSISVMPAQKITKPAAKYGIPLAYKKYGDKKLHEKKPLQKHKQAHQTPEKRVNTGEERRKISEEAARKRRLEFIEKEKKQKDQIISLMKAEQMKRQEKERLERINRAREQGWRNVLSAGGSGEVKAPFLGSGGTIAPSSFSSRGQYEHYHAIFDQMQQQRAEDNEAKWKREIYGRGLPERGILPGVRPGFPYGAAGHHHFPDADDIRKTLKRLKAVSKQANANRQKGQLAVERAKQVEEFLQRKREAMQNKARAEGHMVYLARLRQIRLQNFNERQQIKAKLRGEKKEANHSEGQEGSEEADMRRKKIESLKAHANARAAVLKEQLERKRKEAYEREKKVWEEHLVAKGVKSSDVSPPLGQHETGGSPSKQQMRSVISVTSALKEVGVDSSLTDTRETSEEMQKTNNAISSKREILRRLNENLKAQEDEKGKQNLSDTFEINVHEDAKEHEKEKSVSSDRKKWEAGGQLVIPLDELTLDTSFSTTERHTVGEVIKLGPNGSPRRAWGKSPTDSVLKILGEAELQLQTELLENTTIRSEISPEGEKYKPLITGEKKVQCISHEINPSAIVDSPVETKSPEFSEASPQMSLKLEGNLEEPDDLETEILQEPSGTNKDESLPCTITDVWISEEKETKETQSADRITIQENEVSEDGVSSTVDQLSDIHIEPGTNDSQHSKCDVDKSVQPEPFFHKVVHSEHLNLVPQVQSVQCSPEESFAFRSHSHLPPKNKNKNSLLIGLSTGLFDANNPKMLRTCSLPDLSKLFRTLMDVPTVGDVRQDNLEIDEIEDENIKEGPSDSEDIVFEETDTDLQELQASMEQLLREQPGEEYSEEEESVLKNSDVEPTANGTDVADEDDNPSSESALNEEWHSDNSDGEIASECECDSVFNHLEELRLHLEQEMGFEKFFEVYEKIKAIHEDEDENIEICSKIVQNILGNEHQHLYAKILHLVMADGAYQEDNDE

[2] = target: T2, Dynamin-like GTPase OPA1, mitochondrial (Homo sapiens, UniProt O60313)
T2 sequence (O60313 whole entry): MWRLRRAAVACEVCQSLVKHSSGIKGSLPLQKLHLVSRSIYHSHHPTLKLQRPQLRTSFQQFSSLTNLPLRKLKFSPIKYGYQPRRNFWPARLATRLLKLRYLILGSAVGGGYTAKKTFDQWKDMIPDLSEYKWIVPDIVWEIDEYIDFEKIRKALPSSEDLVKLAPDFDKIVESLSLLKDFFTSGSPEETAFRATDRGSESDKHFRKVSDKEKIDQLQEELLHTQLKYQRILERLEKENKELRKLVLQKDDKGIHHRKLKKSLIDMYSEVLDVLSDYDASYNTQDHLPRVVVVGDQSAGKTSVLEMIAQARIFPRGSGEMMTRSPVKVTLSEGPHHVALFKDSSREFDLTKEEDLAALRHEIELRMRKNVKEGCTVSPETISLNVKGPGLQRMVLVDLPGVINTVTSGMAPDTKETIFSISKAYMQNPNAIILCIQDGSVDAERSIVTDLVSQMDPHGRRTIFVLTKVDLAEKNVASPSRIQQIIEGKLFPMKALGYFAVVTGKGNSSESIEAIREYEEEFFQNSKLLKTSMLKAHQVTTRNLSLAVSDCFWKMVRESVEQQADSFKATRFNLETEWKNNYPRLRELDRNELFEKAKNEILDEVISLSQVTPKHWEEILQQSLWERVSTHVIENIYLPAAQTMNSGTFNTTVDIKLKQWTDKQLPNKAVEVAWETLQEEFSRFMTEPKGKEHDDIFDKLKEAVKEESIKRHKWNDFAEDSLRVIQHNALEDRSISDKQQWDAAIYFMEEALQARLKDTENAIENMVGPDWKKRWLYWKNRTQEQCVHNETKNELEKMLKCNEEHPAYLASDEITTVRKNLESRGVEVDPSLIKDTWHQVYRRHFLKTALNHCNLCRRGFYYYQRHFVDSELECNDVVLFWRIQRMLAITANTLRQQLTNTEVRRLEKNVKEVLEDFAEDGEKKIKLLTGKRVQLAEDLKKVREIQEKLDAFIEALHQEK

Row | Kd [1] | Kd [2] | SMILES
1 | > 30 µM (inactive) | > 30 µM (inactive) | O=C(Nc1ccc(OC(F)(F)F)cc1)c1sccc1NCc1ccnc2ccccc12 [OSI-930]
2 | > 30 µM (inactive) | > 30 µM (inactive) | Cc1cc(Nc2nc(N[C@@H](C)c3ncc(F)cn3)ncc2Cl)n[nH]1 [AZD-1480]
3 | > 30 µM (inactive) | > 30 µM (inactive) | COc1ccc2c(OCc3nnc4ccc(-c5ccccc5)nn34)ccnc2c1 [AMG-208]
4 | > 30 µM (inactive) | > 30 µM (inactive) | CC(C)(O)CC(=O)NCCn1ccc2ncnc(Nc3ccc(Oc4cccc(C(F)(F)F)c4)c(Cl)c3)c21 [TAK-285]
5 | > 30 µM (inactive) | > 30 µM (inactive) | COc1cc2ncnc3c2cc1OCCCCCN(C)Cc1ccc(Br)cc1N3 [JNJ-26483327]
6 |  | > 30 µM (inactive) | C[C@@]1(C(=O)Nc2ccc(F)nc2)CCCN1c1nc(Nc2cc(C3CC3)n[nH]2)c2cccn2n1 [BMS-754807]

The remaining lines, values behind:

Row | SMILES | Kd [1] | Kd [2]
7 | CCN(CCCOc1ccc2c(Nc3cc(CC(=O)Nc4cccc(F)c4)n[nH]3)ncnc2c1)CCOP(=O)(O)O [BARASERTIB] | > 30 µM (inactive) | > 30 µM (inactive)
8 | O=C(NC[C@H](O)CO)c1ccncc1Nc1ccc(I)cc1F [PIMASERTIB] | > 30 µM (inactive) | > 30 µM (inactive)
9 | O=C(NOC[C@H](O)CO)c1ccc(F)c(F)c1Nc1ccc(I)cc1F [MIRDAMETINIB] | > 30 µM (inactive) | > 30 µM (inactive)
10 | COc1cc(Nc2ncc(F)c(Nc3ccc4c(n3)N(COP(=O)(O)O)C(=O)C(C)(C)O4)n2)cc(OC)c1OC [FOSTAMATINIB] | > 30 µM (inactive) | > 30 µM (inactive)
11 | COc1cc2c(Oc3ccc4[nH]c(C)cc4c3F)ncnc2cc1OCCCN1CCCC1 [CEDIRANIB] |  | > 30 µM (inactive)
12 | CNC(=O)c1cc(COc2nnc(Nc3ccc(Cl)cc3)c3ccoc23)ccn1 [TELATINIB] | > 30 µM (inactive) | > 30 µM (inactive)
13 | COc1ccc(-c2ccc3ncc4c(c3c2)n(-c2ccc(N3CCNCC3)c(C(F)(F)F)c2)c(=O)n4C)cn1 [BGT-226 FREE BASE] | > 30 µM (inactive) | > 30 µM (inactive)
14 | COc1cc2c(N3CCN(C(=O)Nc4ccc(OC(C)C)cc4)CC3)ncnc2cc1OCCCN1CCCCC1 [TANDUTINIB] |  | > 30 µM (inactive)
15 | FC(F)(F)c1ccc(CNc2ccc(Cc3c[nH]c4ncc(Cl)cc34)cn2)cn1 [PEXIDARTINIB] | > 30 µM (inactive) | > 30 µM (inactive)
16 | S=C(NCc1ccc2c(c1)OCO2)N1CCN(c2ncnc3c2oc2ccccc23)CC1 [AMUVATINIB] | > 30 µM (inactive) | > 30 µM (inactive)
17 | C=CC(=O)Nc1cccc(Nc2nc(Nc3ccc(N4CCN(C(C)=O)CC4)cc3OC)ncc2C(F)(F)F)c1 [ROCILETINIB] | > 30 µM (inactive) | > 30 µM (inactive)
18 | N#CCNC(=O)c1ccc(-c2ccnc(Nc3ccc(N4CCOCC4)cc3)n2)cc1 [MOMELOTINIB] | > 30 µM (inactive) | 
19 | O=S(=O)(c1cccc2c(O)nccc12)N1CCCNCC1 [HYDROXYFASUDIL] | > 30 µM (inactive) | > 30 µM (inactive)
20 | C[C@@H]1COC(Nc2ccc3ncnc(Nc4ccc(OCc5nccs5)c(Cl)c4)c3c2)=N1 [VARLITINIB] | > 30 µM (inactive) | > 30 µM (inactive)
21 | CCN1CCN(Cc2ccc(Nc3ncc(F)c(-c4cc(F)c5nc(C)n(C(C)C)c5c4)n3)nc2)CC1 [ABEMACICLIB] | > 30 µM (inactive) | > 30 µM (inactive)
22 | COc1cc(F)c(F)c(Nc2ccc(I)cc2F)c1NS(=O)(=O)C1(C[C@H](O)CO)CC1 [REFAMETINIB] | > 30 µM (inactive) | > 30 µM (inactive)
23 | CC1(COc2ccc3c(c2)ncn3-c2ccc3cccc(N4CCC(N)CC4)c3n2)COC1 [CRENOLANIB] | > 30 µM (inactive) | > 30 µM (inactive)
24 | O=c1[nH]c([C@@H]2CCCN2)nc2c1oc1ccc(Cl)cc12 | > 30 µM (inactive) | > 30 µM (inactive)
25 | CC(C)CC(=O)Nc1[nH]nc2c1CN(C(=O)C1CCN(C)CC1)C2(C)C [PHA-793887] | > 30 µM (inactive) | > 30 µM (inactive)

Row | SMILES | Kd [1] | Kd [2]
26 | O=C(O)c1ccc2c(c1)nc(Nc1cccc(Cl)c1)c1ccncc12 [SILMITASERTIB] | > 30 µM (inactive) | > 30 µM (inactive)
27 | CC[C@@](C)(Nc1ccnc(-c2c[nH]c3ncccc23)n1)C(=O)NCC(F)(F)F [DECERNOTINIB] | > 30 µM (inactive) | > 30 µM (inactive)
28 | CCc1cc2c(cc1N1CCC(N3CCOCC3)CC1)C(C)(C)c1[nH]c3cc(C#N)ccc3c1C2=O [ALECTINIB] | > 30 µM (inactive) | > 30 µM (inactive)
29 | Cc1c(NC(=O)OC[C@@H]2COCCN2)cn2ncnc(Nc3ccc4c(cnn4Cc4cccc(F)c4)c3)c12 [AC-480] | > 30 µM (inactive) | > 30 µM (inactive)
30 | C=CCn1c(=O)c2cnc(Nc3ccc(N4CCN(C)CC4)cc3)nc2n1-c1cccc(C(C)(C)O)n1 [ADAVOSERTIB] | > 30 µM (inactive) | > 30 µM (inactive)
31 | CC1(C)CNc2cc(NC(=O)c3cccnc3NCc3ccncc3)ccc21 [MOTESANIB] |  | > 30 µM (inactive)
32 | COCCN1CCN(Cc2ccc(-c3n[nH]c4c3C(=O)c3c(NC(=O)NN5CCOCC5)cccc3-4)cc2)CC1 [RGB-286638] | > 30 µM (inactive) | > 30 µM (inactive)
33 | Cn1cnc2c(F)c(Nc3ccc(Br)cc3Cl)c(C(=O)NOCCO)cc21 [SELUMETINIB] |  | > 30 µM (inactive)
34 | C[C@]1(O)C[C@@H](c2nc(-c3ccc4ccc(-c5ccccc5)nc4c3)c3c(N)nccn32)C1 [LINSITINIB] | > 30 µM (inactive) | > 30 µM (inactive)
35 | COc1cc2ncnc(Nc3ccc(F)c(Cl)c3)c2cc1NC(=O)/C=C/CN1CCCCC1 [DACOMITINIB ANHYDROUS] | > 30 µM (inactive) | > 30 µM (inactive)
36 | C#Cc1cccc(Nc2ncnc3cc4c(cc23)OCCOCCOCCO4)c1 [ICOTINIB] | > 30 µM (inactive) | > 30 µM (inactive)
37 | O=S(=O)(c1cccc2cnccc12)N1CCCNCC1 [FASUDIL] | > 30 µM (inactive) | > 30 µM (inactive)
38 | Cc1c(Cn2c(C)nc3c(C(=O)O)cc(N4CCOCC4)cc32)cccc1C(F)(F)F [GSK-2636771] | > 30 µM (inactive) | > 30 µM (inactive)
39 | CN(c1ncccc1CNc1nc(Nc2ccc3c(c2)CC(=O)N3)ncc1C(F)(F)F)S(C)(=O)=O [PF-00562271] | > 30 µM (inactive) | > 30 µM (inactive)
40 | CNC(=O)c1cccc(-c2ccc3c(N4CCOC[C@@H]4C)nc(N4CCOC[C@@H]4C)nc3n2)c1 [VISTUSERTIB] | > 30 µM (inactive) | > 30 µM (inactive)
41 | NC[C@@](O)(c1ccc(Cl)cc1)c1ccc(-c2cn[nH]c2)cc1 [AT-13148] | > 30 µM (inactive) | > 30 µM (inactive)
42 | COc1cc2nccc(Oc3ccc(NC(=O)C4(C(=O)Nc5ccc(F)cc5)CC4)cc3)c2cc1OC [CABOZANTINIB] | > 30 µM (inactive) | > 30 µM (inactive)
43 | CN(C)C/C=C/C(=O)Nc1cc2c(Nc3ccc(F)c(Cl)c3)ncnc2cc1O[C@H]1CCOC1 [AFATINIB] |  | > 30 µM (inactive)
